“And” between values parts separate entries of the source, which are not always exact repeats. Equal entries are not always repeated. Toxic doses and inconclusive results are not listed.

The assay deals with BDF1 mice, P388 leukemia ip, median survival T/C. In words: NCI In Vivo Anticancer Drug Screen. Data for tumor model P388 Leukemia (intraperitoneal) in B6D2F1 (BDF1) mice. To be noted: endpoint: median survival time, higher = longer survival. The method, boiled down: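 Antitumour effect was judged in vivo: survival in drug-treated mice, normalised to that of vehicle-dosed controls, gives the reported T/C.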

Setting [1] is: dose: 100.0 mg/kg/injection, schedule: Q01DX009 (ip), vehicle: Klucel (hydroxypropylcellulose) (HPC).
[2] abbreviates: dose: 200.0 mg/kg/injection, schedule: Q01DX009 (ip), vehicle: Klucel (hydroxypropylcellulose) (HPC).
Setting [3] is: dose: 25.0 mg/kg/injection, schedule: Q01DX009 (ip), vehicle: saline with Tween-80.
The mark [4] stands for this setting: dose: 50.0 mg/kg/injection, schedule: Q01DX009 (ip), vehicle: saline with Tween-80.
The mark [5] stands for this setting: dose: 100.0 mg/kg/injection, schedule: Q01DX009 (ip), vehicle: saline with Tween-80.
Where [6] appears, read: dose: 100.0 mg/kg/injection, schedule: Q04DX003 (ip), vehicle: Klucel (hydroxypropylcellulose) (HPC).
The mark [7] stands for this setting: dose: 200.0 mg/kg/injection, schedule: Q04DX003 (ip), vehicle: Klucel (hydroxypropylcellulose) (HPC).
Setting [8] is: dose: 400.0 mg/kg/injection, schedule: Q04DX003 (ip), vehicle: Klucel (hydroxypropylcellulose) (HPC).
Where [9] appears, read: dose: 200.0 mg/kg/injection, schedule: Q01DX009 (ip), vehicle: saline with Tween-80.

On to `O=C(O)c1ccc(N2C(=O)C=CC2=O)cc1` (tested in a mixture with another compound), for which the T/C (dose: 0.39 mg/kg/injection, schedule: Q01DX009 (ip), vehicle: Klucel (hydroxypropylcellulose) (HPC)) is 95 % of control; the T/C (dose: 0.78 mg/kg/injection, schedule: Q01DX009 (ip), vehicle: Klucel (hydroxypropylcellulose) (HPC)) is 108 % of control; the T/C (dose: 1.25 mg/kg/injection, schedule: Q01DX001 (ip), vehicle: Klucel (hydroxypropylcellulose) (HPC)) was 100 % of control; the T/C (dose: 1.56 mg/kg/injection, schedule: Q01DX009 (ip), vehicle: Klucel (hydroxypropylcellulose) (HPC)) is 95 % of control; the T/C (dose: 2.5 mg/kg/injection, schedule: Q01DX001 (ip), vehicle: Klucel (hydroxypropylcellulose) (HPC)) is 104 % of control; the T/C (dose: 3.12 mg/kg/injection, schedule: Q01DX009 (ip), vehicle: Klucel (hydroxypropylcellulose) (HPC)) is 110 % of control. In addition, the T/C is, setting by setting: (dose: 4.6 mg/kg/injection, schedule: Q04DX003 (ip), vehicle: Klucel (hydroxypropylcellulose) (HPC)) 95 % of control; (dose: 5.0 mg/kg/injection, schedule: Q01DX001 (ip), vehicle: Klucel (hydroxypropylcellulose) (HPC)) 104 % of control; (dose: 7.0 mg/kg/injection, schedule: Q04DX003 (ip), vehicle: Klucel (hydroxypropylcellulose) (HPC)) 95 % of control; (dose: 10.0 mg/kg/injection, schedule: Q04DX003 (ip), vehicle: Klucel (hydroxypropylcellulose) (HPC)) 100 % of control.

On to `Cn1c(-c2ccccc2)c(C(=O)O)c(C(=O)O)c1-c1ccccc1`, for which the T/C by setting is: (dose: 50.0 mg/kg/injection, schedule: Q01DX009 (ip), vehicle: Klucel (hydroxypropylcellulose) (HPC)) 95 % of control; under setting [1], 90 % of control; under setting [2], 96 % of control.

For the compound `CC(=O)CC(=O)NCCCN1CCCCC1`, the T/C is, setting by setting: (dose: 12.5 mg/kg/injection, schedule: Q01DX009 (ip), vehicle: saline with Tween-80) 92 % of control; under setting [3], 88 % of control; (dose: 25.0 mg/kg/injection, schedule: Q04DX003 (ip), vehicle: saline with Tween-80) 96 % of control; (dose: 50.0 mg/kg/injection, schedule: Q04DX003 (ip), vehicle: saline with Tween-80) 88 % of control.

`COc1ccc(C(=O)/C=N/O)cc1`: the T/C by setting is: under setting [3], 86 % of control; under setting [4], 100 % of control; under setting [5], 90 % of control.

As for `COc1ccc(CC2c3cc(OC)c(OC)cc3CCN2C(=O)c2ccccc2)cc1OC` (stereo not drawn), the T/C (dose: 50.0 mg/kg/injection, schedule: Q01DX005 (ip), vehicle: saline with Tween-80) was 91 % of control and the T/C (dose: 100.0 mg/kg/injection, schedule: Q01DX005 (ip), vehicle: saline with Tween-80) is 91 % of control.

Take `C[n+]1c2ccccc2nc2c(N)cc(N)cc21`: the T/C reads like this: (dose: 4.8 mg/kg/injection, schedule: Q01DX009 (ip), vehicle: saline with Tween-80) 115 % of control; (dose: 7.3 mg/kg/injection, schedule: Q01DX009 (ip), vehicle: saline with Tween-80) 115 % of control; (dose: 26.0 mg/kg/injection, schedule: Q01DX009 (ip), vehicle: saline with Tween-80) 154 % of control; (dose: 41.0 mg/kg/injection, schedule: Q01DX009 (ip), vehicle: saline with Tween-80) 154 % of control; (dose: 41.0 mg/kg/injection, schedule: Q01DX009 (ip), vehicle: water) 185 % of control.

For the compound `CC1(C)N=C(N)N=C(N)N1c1cccc(CCCCc2ccc(S(=O)(=O)F)cc2Cl)c1`, the T/C is, setting by setting: (dose: 3.13 mg/kg/injection, schedule: Q01DX009 (ip), vehicle: saline sonified) 109 % of control; (dose: 4.0 mg/kg/injection, schedule: Q01DX009 (ip), vehicle: saline) 116 % of control; (dose: 4.0 mg/kg/injection, schedule: Q04DX003 (ip), vehicle: saline with Tween-80) 100 % of control; (dose: 6.0 mg/kg/injection, schedule: Q04DX003 (ip), vehicle: saline with Tween-80) 113 % of control; (dose: 6.25 mg/kg/injection, schedule: Q01DX009 (ip), vehicle: saline) 116 % of control; (dose: 9.0 mg/kg/injection, schedule: Q04DX003 (ip), vehicle: saline with Tween-80) 118 % of control. For the same compound, under “dose: 9.4 mg/kg/injection, schedule: Q01DX009 (ip), vehicle: saline”, the T/C is 116 % of control.

Regarding `COc1ccc(/C=N\NC(=O)OC(C)(C)C)c(OC)c1OC`, the T/C (dose: 100.0 mg/kg/injection, schedule: Q01DX009 (ip), vehicle: acetone) is 100 % of control; the T/C under setting [6] was 115 % of control; the T/C (dose: 200.0 mg/kg/injection, schedule: Q01DX009 (ip), vehicle: acetone) is 86 % of control; the T/C under setting [7] is 110 % of control; the T/C (dose: 400.0 mg/kg/injection, schedule: Q01DX009 (ip), vehicle: acetone) is 109 % of control; the T/C under setting [8] is 100 % of control.

As for `Cc1cc(O)c2c(c1O)C(=O)c1ccccc1C2=O`, the T/C was 91 % of control (dose: 100.0 mg/kg/injection, schedule: Q04DX003 (ip), vehicle: saline); 95 % of control (dose: 200.0 mg/kg/injection, schedule: Q04DX003 (ip), vehicle: saline); 95 % of control (dose: 400.0 mg/kg/injection, schedule: Q04DX003 (ip), vehicle: saline).

Consider `O=C=Nc1ccc(Cl)c(Cl)c1` (tested in a mixture with another compound), for which the T/C was 107 % of control (dose: 50.0 mg/kg/injection, schedule: Q01DX011 (ip), vehicle: Klucel (hydroxypropylcellulose) (HPC)); 109 % of control (dose: 100.0 mg/kg/injection, schedule: Q01DX011 (ip), vehicle: Klucel (hydroxypropylcellulose) (HPC)); 100 % of control (dose: 200.0 mg/kg/injection, schedule: Q01DX011 (ip), vehicle: Klucel (hydroxypropylcellulose) (HPC)); 102 % of control (dose: 400.0 mg/kg/injection, schedule: Q01DX011 (ip), vehicle: Klucel (hydroxypropylcellulose) (HPC)).

With `CC(=O)OCC1OC(N=[N+]=[N-])C(OC(C)=O)C(OC(C)=O)C1OC(C)=O` (stereo not drawn), the T/C by setting is: under setting [4], 93 % of control; under setting [5], 108 % of control; under setting [9], 99 % of control.

With `BrCc1ccc2c3c(ccc(CBr)c13)CC2`, the T/C was 113 % of control (dose: 0.92 mg/kg/injection, schedule: Q04DX003 (ip), vehicle: saline); 120 % of control (dose: 3.1 mg/kg/injection, schedule: Q04DX003 (ip), vehicle: saline); 154 % of control (dose: 17.0 mg/kg/injection, schedule: Q04DX003 (ip), vehicle: Klucel (hydroxypropylcellulose) (HPC)); 118 % of control (dose: 25.0 mg/kg/injection, schedule: Q01DX009 (ip), vehicle: Klucel (hydroxypropylcellulose) (HPC)); 118 % of control (dose: 75.0 mg/kg/injection, schedule: Q01DX009 (ip), vehicle: Klucel (hydroxypropylcellulose) (HPC)); 95 % of control under setting [1]. The T/C by setting is: under setting [6], 150 % of control; under setting [7], 154 % of control; (dose: 300.0 mg/kg/injection, schedule: Q04DX003 (ip), vehicle: Klucel (hydroxypropylcellulose) (HPC)) 87 % of control and 100 % of control; (dose: 300.0 mg/kg/injection, schedule: Q04DX003 (ip), vehicle: saline) 118 % of control; under setting [8], 122 % of control.

Regarding `CCOC(=O)C(/C=N/C(N)=O)=C(\C)O`, the T/C is 87 % of control under setting [1]; 100 % of control under setting [6]; 95 % of control under setting [2]; 95 % of control under setting [7]; 87 % of control (dose: 400.0 mg/kg/injection, schedule: Q01DX009 (ip), vehicle: Klucel (hydroxypropylcellulose) (HPC)); 95 % of control under setting [8].

Take `C/C(=N/N(C)C)c1ccccn1`: the T/C is 103 % of control under setting [5]; 104 % of control (dose: 100.0 mg/kg/injection, schedule: Q04DX003 (ip), vehicle: saline with Tween-80); 100 % of control under setting [9]; 100 % of control (dose: 200.0 mg/kg/injection, schedule: Q04DX003 (ip), vehicle: saline with Tween-80); 100 % of control (dose: 400.0 mg/kg/injection, schedule: Q04DX003 (ip), vehicle: saline with Tween-80).

As for `Nc1ccccc1C(=O)Nc1ncn[nH]1`, the T/C reads like this: under setting [4], 96 % of control; under setting [5], 90 % of control; under setting [9], 94 % of control.

Take `CC1=NN(c2ccccc2)C(=O)C1C(=S)SC1CC(=O)NC1=O` (stereo not drawn): the T/C is 117 % of control under setting [4], 103 % of control under setting [5] and 108 % of control under setting [9].

Source of the values: PubChem BioAssay AID328 (DTP/NCI, 2004).
